Test results from the CheMixHub viscosity set.
± gives the uncertainty stated by the source.

Assay: xn = mol fraction of the nth substance listed

CC(C)(C)O + CC#N
viscosity [mPa·s]
Conditions	298.15 K	303.15 K	308.15 K	313.15 K
101 kPa, x1 = 0.0566	0.3785 ± 0.0041	0.3701 ± 0.004	0.3589 ± 0.0039	–
101 kPa, x1 = 0.1198	0.4021 ± 0.0043	0.3935 ± 0.0042	0.3794 ± 0.0041	–
101 kPa, x1 = 0.1887	0.4346 ± 0.0046	0.4229 ± 0.0045	0.4056 ± 0.0043	–
101 kPa, x1 = 0.2685	0.4818 ± 0.005	0.461 ± 0.0048	0.4406 ± 0.0046	–
101 kPa, x1 = 0.3568	0.5555 ± 0.0056	0.5226 ± 0.0053	0.4902 ± 0.0051	–
101 kPa, x1 = 0.4511	0.6735 ± 0.0067	0.6105 ± 0.0061	0.5659 ± 0.0057	–
101 kPa, x1 = 0.5606	0.9097 ± 0.0087	0.8128 ± 0.0079	0.7495 ± 0.0073	–
101 kPa, x1 = 0.6858	1.341 ± 0.012	1.18 ± 0.011	1.058 ± 0.01	–
101 kPa, x1 = 0.831	2.213 ± 0.02	1.884 ± 0.017	1.63 ± 0.015	–
101.3 kPa, x2 = 0.1675	1.925 ± 0.045	1.606 ± 0.038	1.359 ± 0.032	1.158 ± 0.028
101.3 kPa, x2 = 0.3117	1.187 ± 0.029	1.035 ± 0.026	0.909 ± 0.023	0.805 ± 0.021
101.3 kPa, x2 = 0.4368	0.863 ± 0.022	0.756 ± 0.02	0.68 ± 0.018	0.615 ± 0.016
101.3 kPa, x2 = 0.5471	0.66 ± 0.017	0.604 ± 0.016	0.553 ± 0.015	0.509 ± 0.014
101.3 kPa, x2 = 0.6446	0.552 ± 0.015	0.511 ± 0.014	0.474 ± 0.013	0.442 ± 0.013
101.3 kPa, x2 = 0.73	0.476 ± 0.013	0.446 ± 0.013	0.418 ± 0.012	0.394 ± 0.012
101.3 kPa, x2 = 0.8084	0.428 ± 0.012	0.404 ± 0.012	0.382 ± 0.011	0.362 ± 0.011
101.3 kPa, x2 = 0.8784	0.394 ± 0.012	0.375 ± 0.011	0.357 ± 0.011	0.34 ± 0.011
101.3 kPa, x2 = 0.9421	0.376 ± 0.011	0.359 ± 0.011	0.342 ± 0.011	0.33 ± 0.01

CCCCOC(=O)c1ccccc1 + CC#N
viscosity [mPa·s], 101.33 kPa
Conditions	x1 = 0.125	x1 = 0.244	x1 = 0.355	x1 = 0.463	x1 = 0.563	x1 = 0.654	x1 = 0.75	x1 = 0.83	x1 = 0.919
293.15 K	0.446 ± 0.005	0.486 ± 0.005	0.533 ± 0.005	0.629 ± 0.006	0.762 ± 0.006	0.956 ± 0.007	1.173 ± 0.008	1.57 ± 0.01	2.131 ± 0.013
303.15 K	0.402 ± 0.005	0.434 ± 0.005	0.472 ± 0.005	0.551 ± 0.005	0.655 ± 0.006	0.808 ± 0.006	0.979 ± 0.007	1.27 ± 0.008	1.69 ± 0.01
313.15 K	0.364 ± 0.005	0.392 ± 0.005	0.424 ± 0.005	0.483 ± 0.005	0.567 ± 0.005	0.696 ± 0.006	0.825 ± 0.006	1.056 ± 0.007	1.368 ± 0.009
323.15 K	0.313 ± 0.005	0.352 ± 0.005	0.382 ± 0.005	0.43 ± 0.005	0.461 ± 0.005	0.603 ± 0.006	0.667 ± 0.006	0.9 ± 0.007	1.119 ± 0.008

CC(C)(C)O + CC(=O)N(C)C
303.15 K, 101 kPa
Conditions	viscosity [mPa·s]
x2 = 0.1094	2.544 ± 0.022
x2 = 0.2069	2.032 ± 0.018
x2 = 0.3062	1.651 ± 0.015
x2 = 0.4037	1.422 ± 0.013
x2 = 0.5026	1.255 ± 0.012
x2 = 0.6154	1.128 ± 0.011
x2 = 0.7028	1.046 ± 0.011
x2 = 0.8064	0.973 ± 0.01
x2 = 0.8954	0.924 ± 0.01
